According to paper PMC4979516, “Quinazoline-based tricyclic compounds that regulate programmed cell death, induce neuronal differentiation, and are curative in animal models for excitotoxicity and hereditary brain disease” (Cell Death Discovery, 2015):
“Also recorded” adds a separate entry of the source.

Tests used:
PC12 cells [1] = experiment: Collapse of mitochondrial membrane potential (JC-1) in PC12 cells; assay type: cell-based, rat; conditions: PC12, 50 μM MGV-1, 35 mM glutamate
Excerpt: JC-1 was used to assay changes in Δψm, as described previously.[71],[79] Owing to charges distributed along JC-1 molecules, they pass unimpaired (charged) mitochondrial membranes and enter the mitochondrial matrix. There the J-molecules form J-aggregates, which emit at 590 nm (orange–red fluorescence). […] The monomers emit at 527 nm (green fluorescence). A decrease in the red–green fluorescence intensity ratio is an indication for mitochondrial depolarization. As a positive control, the proton ionophore carbonyl cyanide m-chlorophenylhydrazone was used as described previously.[71] Cells were collected and prepared for suspension in 10 μg/ml of JC-1 solution in PBS. After incubation at 37 °C for 30 min in the dark, the cells were washed with 0.5 ml of PBS, and the cell suspensions were analyzed with the BD FACSCalibur flow cytometer.

PC12 cells [2] = experiment: Neuronal differentiation of PC12 cells, strain not specified; assay type: cell-based, rat; conditions: agent by itself; MGV-1 50 μM
Procedure: For our newly developed differentiation method by MGV-1 in combination with glutamate, PC12 cells were plated onto poly-L-lysine coated culture plates and Petri dishes at a relatively low density (5.2×10^3 cells/cm^2 for six-well plates and 3.6×10^3 cells/cm^2 for Petri dishes), in DMEM medium containing 8% heat-inactivated FBS and 8% horse serum. […] Exposure to vehicle alone (culture medium with 1% of ethanol) was used as the control.
The major and determining indication of neural differentiation of PC12 cells is neurite development.[23],[80] […] The number of differentiated cells was determined by visual examination of the captured fields. In particular, a line was drafted at half height of the image and the cell bodies crossed by the line were further analyzed regarding differentiation. […] Cells with at least one identifiable neurite with a length at least equal to the cell body diameter were scored, and their number expressed as a percentage of the total number of cells crossed by said line. In addition, for each of these cells, the length of the longest neurite was determined (using AxioVision Image software, Zeiss). […]

[3] = test system: NeuN expression in PC12 cells strain #3; experiment: Western blot of NeuN in PC12 strain #3; assay type: cell-based, rat; conditions: PC12 strain #3, versus vehicle control
Procedure: The relative protein levels of TSPO and other proteins related to neurodifferentiation (including β-actin, NeuN, tubulin-3β), were assayed by immunoblotting with the aid electrophoresis through 12% SDS-polyacrylamide gel, according to previously described methods.[71] A priori, general protein levels were measured by the method of Bradford using BSA as a standard.[75] After electrophoresis, the gels were subjected to electrophoretic transfer to nitrocellulose membranes. Then, the membranes were blocked for 1 h in 5% non-fat milk in 62.5 mM sodium phosphate buffer, pH 7.4, containing 100 mM NaCl, and 0.1% (v/v) Tween-20 (PBS-T) and then incubated for 2 h or overnight at 4 °C with the appropriate antibodies: anti-tubulin-3β 1 : 10 000, anti-NeuN 1 : 1000, anti β-actin 1 : 15 000, and anti-TSPO 1 : 10 000.[73] After washing with TBS-T, the membranes were incubated with IgG secondary antibody linked to horseradish peroxidase (anti-rabbit IgG 1 : 20 000, anti-mouse IgG 1 : 10 000, as appropriate, from Jackson Immunologicals, West Grove, PA, USA) in TBS-T at room temperature. Binding of antibodies to the membrane was detected with the EZ-ECL-detection reagent (Biological Industries), using the ImageQuant LAS 4010 apparatus and Totallab Quant quantitative image analysis of Totallab (Newcastle upon Tyne, England).

[4] = test system: kainic acid-injected Sprague-Dawley rats; experiment: Systemic kainic acid injection model in rats (seizures, hyper reactivity, hippocampal histology); assay type: in vivo; conditions: rat
Excerpt: Epileptic seizures in rats, including gnawing, wet dog shakes, head bobbing, forepaw abduction, rearing, forelimb clonus, loss of balance, and convulsions were induced by systemic injections of kainic acid and scored as previously described.[48],[83–85] Such induced seizures typically are accompanied by neurodegeneration in the hippocampus, amydala, pyriform cortex, followed by edema in the diencephalon, and mesencephalon.[43],[44],[86] To test the effects of pretreatment with MGV-1 on the consequences of kainic acid injections, first of all MGV-1 was dissolved in vehicle (10% (v/v) dimethylsulfoxide (DMSO) in sesame oil). After that, 8 weeks old rats received an intraperitoneal injection of 15, 7.5, or 3.75 mg of MGV-1 (per kg/rat), according to previous methods.[48] […] After the kainic acid injections, the rats were monitored continuously for 2 h for the development of epileptic symptoms.[48],[86]
For MGV-1 post-treatment, rats first received a KA injection (9 mg/kg/rat) and then a single injection of 15 mg/kg MGV-1 2 h later, that is, after the typical period for full blown seizure activity. In a single experiment, each experimental group and the vehicle control group consisted of nine rats. Then, for 1 week, daily injections of MGV-1 were given, and the rats were tested daily for hyper reactivity in response to handling.[47] Histological assays were applied 2 weeks after kainic acid injections.
For histological assays, rats that had developed seizures and had subsequently received treatment or control vehicle were sedated with ketamine (75 mg/kg) and xylazine (10 mg/kg) injections until no reflexes were seen and were then perfused with 4% of paraformaldehyde. […] The brains were taken and then stored in paraformaldehyde 4% solution at 4 °C. After 48 h, the solution was changed to 20% sucrose solution at 4 °C. Brains of rats that were post treated with MGV-1 were prepared in the same way. After the brains had sunk they were embedded in optimal cutting temperature compound, frozen with liquid nitrogen, and stored at −70 °C. The brains were cut at −18 °C on a Cryostat Leica (Wetzlar, Germany) CM3050S microtome in 40 μm sections from Bregma −2.8 to −5.8. The sections were kept in PBS without Ca^2+ and Mg^2+ with 0.5% sodium azide at 4 °C. Sections were incubated with primary antibodies against anti-NeuN to label neurons.[87] The appropriate secondary antibodies were applied with VECTASTAIN Peroxidase ABC Kits (Vector Laboratories, Burlingame, CA, USA) based on avidin–biotin, according to the manufacturer’s instructions. The labeled, floating sections were mounted on microscope slides and coverslipped applying glycerol vinyl alcohol aqueous mounting solution. For observations and micrographs, a BH2 Olympus (Tokyo, Japan) upright microscope outfitted with a Nikon (Tokyo, Japan) DSFi1 digital camera was used.

CN(C)C(=O)Oc1nc(-c2ccccc2)nc2ccccc12 [MGV-1, 2-phenylquinazolin-4-yl dimethylcarbamate]
Enhancement of the incidence of collapse of the ΔΨm (PC12 cells [1]): threefold | Neuronal differentiation of PC12 cells (neurite outgrowth) (PC12 cells [2]): very effective in inducing extensive neuronal differentiation; also recorded: more effective than NGF and glutamate by themselves | Increase of NeuN expression (western blot) [3]: do not enhance NeuN expression significantly | Induction of seizures by kainic acid ([4]; 15 and 7.5 mg/kg MGV-1 i.p. 2 h before kainic acid 9 mg/kg): reduction of seizure incidence by half | Hyper reactivity in response to handling, post-treatment ([4]; MGV-1 15 mg/kg 2 h after kainic acid, then daily for 6 days): restores normal response to handling | Damage in hippocampal area CA1 (NeuN labeling), post-treatment ([4]; MGV-1 15 mg/kg 2 h after kainic acid, then daily for a week): attenuated damage to area CA1, but less so than MGV-1 pretreatment | Hyper reactivity in response to handling, pretreatment ([4]; MGV-1 2 h before kainic acid, week after injection): attenuates the incidence of the hyper reactivity | Damage in hippocampal area CA1 (NeuN labeling), pretreatment ([4]; MGV-1 i.p. before kainic acid 9 mg/kg, histology 2 weeks later): well attenuated
